Assay results reported in patent publication US20240243319A1, “AQUEOUS ELECTROLYTE, SALTS USED THEREIN, AND REDOX FLOW BATTERY USING SAID AQUEOUS ELECTROLYTE” (MITSUBISHI CHEMICAL CORPORATION, priority 2021, published 2024).

Test: Dissolution test in 1 M chloride salt aqueous solutions
Assay type: physicochemical
Details: potassium chloride, lithium chloride and ammonium chloride aqueous solution, room temperature
[1] = 0.01 mmol added to 10 mL each of 1 M sodium chloride

Structure (SMILES)	dissolution in aqueous salt solutions [1]	dissolution in aqueous salt solutions (0.05 mmol added to 10 mL each of 1 M sodium chloride)
O=C1c2ccccc2C(=O)c2c1cc(S(=O)(=O)[O-])c(O)c2O.[Na+] [Alizarin Red S, reference compound]	did not dissolve	–
O=C(O)c1ccc2nc3cc(O)c(O)cc3nc2c1 [compound represented by formula (1a-1)]	–	did not dissolve
O=C(O)c1ccc2c(c1)C(=O)c1c(O)ccc(O)c1C2=O [compound represented by formula (2a-1)]	did not dissolve	–
